Test [1] deals with GABA post-synaptic receptor. The test is described as follows: displacement of tritiated GABA from its post-synaptic receptor (synaptic membranes, Enna and Snyder). The conditions noted are these: in vitro, tritiated GABA 3.6 nM, read-out: Median effective concentration (EC50) for displacement of tritiated GABA. Type of test: binding. Here is the method:
The products according to the invention were studied for their activity on the central nervous system. Activity on the displacement of .UPSILON.-aminobutyric acid from its post-synaptic receptor. Method: The neurochemical activity of the derivatives of the present invention on the GABA-ergic system was evaluated by measuring the displacement of .UPSILON.-aminobutyric acid (GABA) from its post-synaptic receptor. The study was carried out by the method of ENNA and […] (Brain Res. 100, 81-97, 1975). The displacement experiment was carried out in vitro in the presence of a suspension of synaptic membranes and tritiated GABA at a final concentration of 3.6 nM.

In test [2] the test system is rotational behaviour of mice. The test is described as follows: rotational behaviour of mice after unilateral lesion of the nigro-striated passage by 6-(OH)-dopamine. It counts as in vivo, CD1 Charles River female mice. The conditions noted are these: intraperitoneal, 1 hour after administration, over 2 minutes, **p 0.01. The protocol:
3. Effect on the rotational behaviour of mice after unilateral lesion of the nigro-striated passage by 6-(OH)-dopamine
The influence of the derivatives of the present invention on the central dopaminergic system was evaluated on the rotational behaviour of mice after unilateral lesion of the nigro-striated passage by 6-(OH)-dopamine. (P. PROTAIS and J. COSTENTIN, J. Pharmacol. 7(2), 251-255, 1976).
CD1 Charles River female mice, weighing 20 to 24 g, have previously undergone unilateral lesion of the striatum by the stereotaxic injection of 6-(OH)-dopamine at a dose of 8 μg per animal. One week after this operation, the product to be studied was administered intraperitoneally to grouos of 7 mice. The number of rotations was evaluated over 2 minutes, 1 hour after the administration of the product. The rotations on the same side as the lesion were counted as positive and those on the opposite side were counted as negative. The algebraic sum of the rotations for a group treated animals was compared with that for the group of control animals which had only received the vehicle (physiological serum).

In test [3] the test system is reserpine-induced ptosis in mice. The test is described as follows: antagonism of reserpine-induced ptosis in mice. Type of test: in vivo. The conditions noted are these: Mus musculus, ip; intraperitoneal, with reserpine 2 mg/kg i.v., 1 hour, probit; (26-32)* on the line below. The protocol: 2. Effect on the antagonism of reserpine-induced ptosis
The antidepressive activity of the compounds was evaluated in the test for the antagonism of reserpine-induced ptosis in mice.
This study was carried out on batches of 10 female mice weighing 20±1 g. The products were administered intraperitoneally at the same time as the reserpine (2 mg/kg, administered intravenously). The mice were observed individually 1 hour after the administrations. […] The median effective dose for antagonism (ED50) was evaluated by the probit method.

Test [4] relates to spontaneous motility of mice. Kind of test: spontaneous motility of mice (activity test). It counts as in vivo. The conditions noted are these: oral, 45 minutes after administration, recorded 10 minutes. Here is the method: 1. Activity on the motility of mice
The tranquillising-sedative activity of the derivatives of the present invention was evaluated by measuring the spontaneous motility of mice by means of the activity test (J. R. BOISSIER and P. SIMON, Arch. Int. Pharmacodyn. 1965, 158, 212-221).
The equipment consisted of activity cages of the Apelab type (length=26 cm; width=21.5 cm; height=10 cm), through which two rays of light pass, acting on a photoelectric cell.
The animals were placed individually in the cages 45 minutes after oral administration of the product: each crossing of a light beam was counted by an individual counter. The scores corresponding to the movements of the animals were recorded for 10 minutes. The batches consisted of 12 mice per dose.

pEC50: −log10 of the molar value.

Turning to `Nc1ccc(C2CCCCC2)n[n+]1CCCC(=O)O` [Example 41], the pEC50 in test [1] is 4.98.
Regarding `Cc1cc(-c2ccccc2Cl)n[n+](CCCC(=O)O)c1N` [Example 29], in test [1], the pEC50 was 5.49.
As for `Cc1cc(-c2cccc3ccccc23)n[n+](CCCC(=O)O)c1N` [Example 24, 3-Amino-2-(3-carboxypropyl)-4-methyl-6-(naphth-1-yl)-2-pyridazinium chloride], the pEC50 in test [1] was 5.54.
Take `Nc1ccc(-c2ccc(Cl)cc2)n[n+]1CCCC(=O)O` [Example 31]: the pEC50 in test [1] was 5.90.
Same read-out and setting: under `Nc1ccc(-c2ccc(Cl)cc2Cl)n[n+]1CCCC(=O)O` [Example 30] stands 5.15.
With `Cc1cc(-c2ccccc2)n[n+](CCCCC(=O)O)c1N` [Example 40], the entries for the “Rotational behaviour of mice, effect” value in test [2] (0,5 mg/kg) and in test [2] (2 mg/kg) were -50% and -62%, respectively. For the same compound, the 50% effective dose (ED50) in test [3] stood at 29 mg/kg. For the same compound, the “Motility of the mice, effect” value in test [4] (50 mg/kg, *p 0.05) was -33%; in test [4] (100 mg/kg, **p 0.01), -48%.
In the case of `COc1ccc(-c2cc(C)c(N)[n+](CCCC(=O)O)n2)cc1` [Example 27], the pEC50 in test [1] is 5.30.
On to `Cc1cc(-c2ccccc2)n[n+](CCCC(=O)O)c1N` [Example 37], for which the pEC50 in test [1] is 5.55.
The same measure, in the same setting: under `Cc1cc(-c2cccc(Cl)c2)n[n+](CCCC(=O)O)c1N` [Example 33] stands 6.15; under `Nc1ccc(-c2ccsc2)n[n+]1CCCC(=O)O` [Example 42], 5.62; under `Nc1ccc(-c2cccs2)n[n+]1CCCC(=O)O` [Example 43], 6.08.
Regarding `Nc1ccc(-c2ccccc2)n[n+]1CCCC(=O)O` [Example 38], in test [1], the pEC50 was 5.87.
Take `Cc1ccc(-c2cc(C)c(N)[n+](CCCC(=O)O)n2)cc1` [Example 34]: the pEC50 in test [1] is 6.15.
As to `Cc1cc(-c2ccc(O)cc2)n[n+](CCCC(=O)O)c1N` [Example 47, 3-Amino-2-(3-carboxypropyl)-4-methyl-6-(4-hydroxyphenyl)-2-pyridazinium bromide], the pEC50 in test [1] was 5.52.
With `Cc1cc(-c2ccccc2)n[n+](CCC(=O)O)c1N` [Example 39], the pEC50 in test [1] was 5.00.

Values taken from patent US4721711A, “Pyridazine derivatives active on the central nervous system, and medicaments in which they are present” (Sanofi, priority 1983, dated 1988).
